Measurements reported in patent US20200093824A1, “ERBB3 Activators in Hearing Restoration” (University of Rochester, priority 2018, published 2020).
“Also recorded” adds a separate entry of the source.

Columns and labels:
[1] = tested on: supporting cells in organ of Corti explants; test: Cochlear explant culture with Pa2g4/EBP1 inhibitors: EdU supporting cell proliferation; format: cell-based; conditions: P1-P2 wild type mouse explants, 48-72 hours, WS3 0.01 μM or WS6 0.5 μM vs DMSO, gradient from apex to base
Description: (§1) Cochleae were isolated from postnatal day 1-day 2 wild type or Atoh1-nGFP mice (Lumpkin, Collisson et al. 2003). The organ of Corti was isolated from the otic capsule, and the nerve tissue and stria vascularis were removed. The organ of Corti was plated on a glass coverslip coated with a 1:10 mixture of Matrigel and DMEM/F12 to promote attachment. Cochlear explants were cultured in a serum-free 1:1 mixture of DMEM and F12, supplemented with Glutamax, N2, and B27. For the treated cochlea, small molecules were added to this culture medium, while the control cochlea was cultured with medium containing DMSO at the same concentration used in the treatments. To measure proliferation, explants were treated with EdU (10 μg/ml) along with the drug or DMSO. Drug-treated explants were cultured for 3 days then fixed in 4% PFA for 30 min.
To quantify WS3 and WS6-treated cochleae, the length of the sensory epithelium was measured using ImageJ software with the overall length determined from the hook to the apex in each sample. The number of myosin VIIa-positive cells or Edu positive cells in the supporting cell region were manually counted. The total number of cells was counted in each of four cochlear segments of 1200-1400 μm (apical, mid-apical, mid-basal, and basal), density (cells per 100 μm) was then calculated for each segment. […]

rodent diabetes model = conditions: by promoting cell proliferation, Shen, Tremblay et al. 2013; cited from earlier work
p-ERBB2 in MCF-7 cells = test: Western blot of ERBB2 pathway activation with anti-p-ERBB2 antibody (Y1248); format: cell-based; conditions: MCF-7 breast cancer cells, treated for 15 minutes
Description: FIGS. 8A, 8A′. […] FIG. 8A. Images of the apex region of the P1-P2 organ of Corti cultured for 48-72 hours in the presence of DMSO, WS3 (0.01 μM), or WS6 (0.5 μM). MYO7a (green), SOX2 (red) and EdU (blue) are shown. IHC, inner hair cells; OHC, outer hair cells (FIG. 8A′) Cross section of organ of Corti from FIG. 8A at the yellow line. Scale bar: 25 microns. FIG. 8B. […] FIG. 8C. Western blot analysis of ERBB2 pathway activation was conducted using anti-p-ERBB2 antibody (Y1248) in MCF-7 cells. Cells were treated with WS3 or WS6 for 15 minutes.
To determine if the drug treatments promoted SC proliferation, the compound were applied to cochlear explants from wild type mice at P1-P2 with EdU present to label the proliferating cells. […] To confirm that the effect of the drugs was mediated through ERBB2 activation, the ERBB2 phosphorylation was analyzed using the protein lysates from cochlear explant.

[2] = tested on: organ of Corti explants (hair cells / supporting cells); test: Cochlear explant culture with Pa2g4/EBP1 inhibitors: MYO7+ / Atoh1-nGFP cell generation; format: cell-based, mouse; conditions: for Increase in number of MYO7+ cells in the apex / Atoh1-nGFP-positive cells near OHCs: Atoh1-nGFP mouse cochlear explants; for Increase in number of MYO7+ cells in the apex: WS3 or WS6 treatment; for Atoh1-nGFP-positive cells near OHCs: gradient from apex to base; for MYO7+ cell counts at the apex region versus controls: P1-P2 mouse organ of Corti explants, 48-72 hours, WS3 0.01 μM or WS6 0.5 μM vs DMSO, mean per 100 μm, WS6 p=0.0043, WS3 p=0.0060; for Concentration at which effects were observed in culture: application in culture
Description: as §1
To quantify WS3 and WS6-treated cochleae, the length of the sensory epithelium was measured using ImageJ software with the overall length determined from the hook to the apex in each sample. The number of myosin VIIa-positive cells or Edu positive cells in the supporting cell region were manually counted. The total number of cells was counted in each of four cochlear segments of 1200-1400 μm (apical, mid-apical, mid-basal, and basal), density (cells per 100 μm) was then calculated for each segment. Statistical analyses were performed using Prism version 7.0 software; comparisons among groups were made by one-way ANOVA followed by Dunnett's multiple-comparisons test for comparing the mean of each group with the mean of a control group.
Our findings with the conditional ErbB2 activation animal models have shown that the constitutive activation of ERBB2 can result in SC expansion and ectopic MYO7+ cell generation. To further validate the crucial role of ERBB2 activation, inventors turned to small molecules to pharmacologically activate the ErbB pathway and determine their effect on SC expansion and HC differentiation. Two compounds, WS3 and WS6, were chosen, as these two analogues promoted cell proliferation in growth arrested cells such as […] and retinal pigment epithelial (RPE) cells (Shen, Tremblay et al. 2013, Swoboda, Elliott et al. 2013). […] To test the effect of these drugs on SCs, they were applied to cochlear explants derived from Atoh1-nGFP reporter mice (Lumpkin, Collisson et al. 2003). […] The number of MYO7+ cells in the apex was increased by 20 cells/100 μm (FIGS. 7A and 7B).

[3] = tested on: retinal pigment epithelium (RPE) cells; conditions: Swoboda, Elliott et al. 2013; cited from earlier work

SMILES	EdU+ cells in the SOX2+ supporting cell region [1]	β-cell mass (rodent diabetes model)	p-ERBB2 level (p-ERBB2 in MCF-7 cells)	Increase in number of MYO7+ cells in the apex [2]	Atoh1-nGFP-positive cells near OHCs [2]	MYO7+ cell counts at the apex region versus controls [2]	Concentration at which effects were observed in culture [2]	Expansion of retinal pigment epithelium (RPE) cells [3]
CN1CCN(Cc2ccc(NC(=O)Cc3ccc(Oc4cc(NC(=O)C5CC5)ncn4)cc3)cc2C(F)(F)F)CC1 [WS6]	A large number of EdU+ cells were observed; also recorded: significantly more SCs	increases p3-cell mass	elevated	20 cells/100 μm	additional Atoh1-nGFP-positive cells near OHCs were seen	Significantly more MYO7+ cells	500 nM	–
CN1CCN(Cc2ccc(NC(=O)Nc3ccc(Oc4cc(NC(=O)C5CC5)ncn4)cc3)cc2C(F)(F)F)CC1 [WS3]	A large number of EdU+ cells were observed; also recorded: significantly more SCs	–	elevated	20 cells/100 μm	additional Atoh1-nGFP-positive cells near OHCs were seen	Significantly more MYO7+ cells	10 nM	expands retinal pigment epithelium (RPE) cells
